The text below walks through data of publication PMC7022392, “Chemoenzymatic Synthesis of Enantiomeric, Bicyclic δ-Halo-γ-lactones with a Cyclohexane Ring, Their Biological Activity and Interaction with Biological Membranes” (Biomolecules, 2020).

Data set [1] relates to CLB70 (canine B-cell chronic leukemia). The data set is described as follows: Antiproliferative activity (formazan viability). To be noted: mean ± SD. Type of data set: cell-based. The method, then: (§1) The GL-1 (canine B-cell leukemia) was obtained from Yasuhito Fujino and Hajime Tsujimoto from the Department of Veterinary Internal Medicine University of Tokyo [27], the CLB70 (canine B-cell chronic leukemia) was described earlier by Pawlak et al.. The GL-1 cells were maintained in RPMI 1640 medium with 10% fetal bovine serum (FBS), 100 µg/mL streptomycin, 100 U/mL penicillin and 2 mM L-glutamine (Sigma-Aldrich, Stainheim, Germany). The CLB70 cell line was maintained in Advanced RPMI (Gibco) medium with 100 µg/mL streptomycin, 100 U/mL penicillin and 20% heat-inactivated FBS. Cells were cultured at 37 °C in the incubator with 95% humidified atmosphere and 5% CO2. The antiproliferative activity was tested according to the procedure described previously. The tested lactones were prepared within a concentration range of 6.25–50 µg/mL in the culture medium (DMSO concentration was less than 1% in each dilution). The activity curves used to calculate IC50 are presented in the (Supplementary information Figures S7–S18). The optical density of formed formazan in untreated control cells was assigned as 100%. Viability of test samples was calculated as: % Viability = (average OD for test group/average OD for control group) × 100. The results were determined from more than 3 independent experiments (four wells each) and presented as mean IC50 value ± SD.

The subject of data set [2] is GL-1 (canine B-cell leukemia). Nature of the data set: Antiproliferative activity (formazan viability). Type of data set: cell-based. The following applies: GL-1 cell line, mean ± SD. The method, then: as §1
In data set [3] the test system is Proteus mirabilis ATCC 35659. Nature of the data set: Disc diffusion antimicrobial test. Type of data set: cell-based. To be noted: includes 6 mm disc, 24 h at 37 °C, racemic compounds. On the technique in general: A growth-free zone around the sample is the usual read-out of agar diffusion tests.
Data set [4] relates to Escherichia coli ATCC 25922. The data set is described as follows: Disc diffusion antimicrobial test. Type of data set: cell-based. The following applies: includes 6 mm disc, 24 h at 37 °C, racemic compounds. The method, then:
(§2) The antimicrobial activity of racemic halolactones were tested towards three bacterial strains classified as Gram-negative (Escherichia coli ATCC 25922, Pseudomonas aeruginosa ATCC 27853, Proteus mirabilis ATCC […]) and Gram-positive (Bacillus cereus ATCC 10876) and two fungal strains (Candida albicans ATCC 10231 and Aspergillus brasiliensis ATCC 16404). The microorganisms were supplied by Pasteur Institute of Algiers (Algeria).
(§3) The tests were carried out using the disc diffusion method. Briefly, overnight microbial cultures were adjusted to 0.5 MacFarland turbidity standards and spread in Petri dishes containing Mueller–Hinton and Sabouraud media for bacteria and fungi, respectively. The paper discs (6 mm diameter) was sterilized and impregnated with lactone dissolved in DMSO. Then, the discs were placed on the inoculated agar. The negative controls were discs immersed in pure DMSO. The plates were incubated for 24 h at 37 °C (bacteria) and for 48 h at 25 °C (yeast) and 5–7 days for fungi. Then, the inhibition zone diameters were determined in millimeters (including disc diameter of 6 mm). The test was carried out in triplicates.

In data set [5] the test system is Bacillus cereus ATCC 10876. Nature of the data set: Disc diffusion antimicrobial test. Type of data set: cell-based. The following applies: includes 6 mm disc, 24 h at 37 °C, racemic compounds. The method, then:
as §2, §3

[6] abbreviates: Canis lupus familiaris, CLB70, CLB70 cell line, read-out: IC50.
[7] abbreviates: Canis lupus familiaris, B-cell, read-out: IC50.

In brackets after ≈: the same amount, converted by molar mass. Read-outs that look alike come from different tables or passages of the source.

For orientation: melting point means the temperature, or range, at which the solid turns liquid. In general, IC50 refers to the concentration at which inhibition is half-maximal. The compound `C[C@@H](I)[C@]12CCCC[C@H]1CC(=O)O2` [6a, (−)-(1S,6S,1′R)-1-(1′-Iodoethyl)-9-oxabicyclo[4.3.0]nonan-8-one] registered a melting point of 104 to 107 °C. In data set [1] (setting [6]), the IC50 was 19.6 ± 0.51 µg/mL (≈ 66.6 µM). Also, in data set [2] (setting [7]), the half-inhibitory concentration (IC50) is 13.8 ± 1.08 µg/mL (≈ 46.8 µM).
For `C[C@@H](Br)[C@]12CCCC[C@H]1CC(=O)O2` [7a, (−)-(1S,6S,1′R)-1-(1′-Bromoethyl)-9-oxabicyclo[4.3.0]nonan-8-one], in that order: 44 to 48 °C, 19.4 ± 0.35 µg/mL (≈ 78.5 µM) and 15.6 ± 0.79 µg/mL (≈ 62.9 µM).
For `C[C@@H](Cl)[C@]12CCCC[C@H]1CC(=O)O2` [8a, (−)-(1S,6S,1′R)-1-(1′-Chloroethyl)-9-oxabicyclo[4.3.0]nonan-8-one], in that order: 37 to 40 °C, 23.9 ± 5.14 µg/mL (≈ 118 µM) and 17.2 ± 3.62 µg/mL (≈ 84.7 µM).
With `C[C@H](Br)[C@@]12CCCC[C@@H]1CC(=O)O2` [7b, (+)-(1R,6R,1′S)-1-(1′-Bromoethyl)-9-oxabicyclo[4.3.0]nonan-8-one], the half-maximal inhibitory concentration (IC50) in data set [1] (setting [6]) is 28.6 ± 4.89 µg/mL (≈ 116 µM); in data set [2] (setting [7]), 14.9 ± 1.93 µg/mL (≈ 60.5 µM).
As for `CC(Br)C12CCCCC1CC(=O)O2` (racemic) [rac-7, 1-(1′-Bromoethyl)-9-Oxabicyclo[4.3.0]nonan-8-one], in data set [3], the “diameter of inhibition zone” value is 12 ± 0.35 mm. The inhibition zone is listed as 9 ± 0.00 mm in data set [4] and 8 ± 0.00 mm in data set [5].
On to `CC(Cl)C12CCCCC1CC(=O)O2` (centres unmarked) [compound 8, 1-(1′-Chloroethyl)-9-Oxabicyclo[4.3.0]nonan-8-one], for which, in data set [3], the “diameter of inhibition zone” value came out at 12 ± 0.00 mm.
For the compound `C[C@H](Cl)[C@@]12CCCC[C@@H]1CC(=O)O2` [8b, (+)-(1R,6R,1′S)-1-(1′-Chloroethyl)-9-oxabicyclo[4.3.0]nonan-8-one], the concentration for half-maximal inhibition (IC50) in data set [1] (CLB70 cell line) turned out to be 18.43 ± 1.46 µg/mL (≈ 90.9 µM); in data set [1] (setting [6]), 11.4 ± 0.4 µg/mL (≈ 56.2 µM); in data set [2] (setting [7]), 18.4 ± 1.46 µg/mL (≈ 90.9 µM); in data set [2], 11.40 ± 0.40 µg/mL (≈ 56.2 µM).
Consider `COc1cc([C@@H]2c3cc4c(cc3[C@@H](O[C@@H]3O[C@@H]5CO[C@@H](C)O[C@H]5[C@H](O)[C@H]3O)[C@H]3COC(=O)[C@H]23)OCO4)cc(OC)c1O` [Etoposide, reference compound], for which the IC50 in data set [1] (setting [6]) was 14.3 ± 2.83 µg/mL (≈ 24.3 µM); in data set [2] (setting [7]), 4.4 ± 1.14 µg/mL (≈ 7.48 µM).
Regarding `C[C@H](I)[C@@]12CCCC[C@@H]1CC(=O)O2` [6b, (+)-(1R,6R,1′S)-1-(1′-Iodoethyl)-9-oxabicyclo[4.3.0]nonan-8-one], the figures for the IC50 in data set [1] (setting [6]) and in data set [2] (setting [7]) were 19.93 ± 0.07 µg/mL (≈ 67.8 µM) and 14.5 ± 2.38 µg/mL (≈ 49.4 µM), respectively.
Consider `CC(I)C12CCCCC1CC(=O)O2` (racemic) [rac-6, 1-(1′-Iodoethyl)-9-Oxabicyclo[4.3.0]nonan-8-one], for which the “diameter of inhibition zone” value in data set [3] is recorded as 11 ± 0.00 mm. For the same compound, the results for the inhibition zone in data set [4] and in data set [5] were 7 ± 0.00 mm and 12 ± 0.00 mm, respectively.
